Experiments:
Assay in all cases: relative viability (nuclei count vs DMSO), 5 days (fraction); higher = more cells survive
[1] = compound: C1CSC2=C(C(=O)N1)SC3=C2C=C(C=C3)O [kb NB 142-70] + CC(=O)c1c(C)c2cnc(Nc3ccc(N4CCNCC4)cn3)nc2n(C2CCCC2)c1=O [Palbociclib] (partner 0.5 µM)
In short: (§1)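 After 5 days of treatment, lung cancer cells in 1536-well plates were fixed and stained in a single step (final 0.05% Triton X-100, 1% formaldehyde, 1 ug/ml Hoechst) and their nuclei counted on 4× images. Treatment had been applied by pin tool the day after seeding as one drug alone or as a fixed anchor-drug dose with five library-drug doses (not always all listed) in √10 steps. Relative viability is the nuclei count of treated wells divided by that of vehicle wells, and values are medians of duplicate plates.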

kb NB 142-70 + Dasatinib = compound: C1CSC2=C(C(=O)N1)SC3=C2C=C(C=C3)O [kb NB 142-70] + Cc1nc(Nc2ncc(C(=O)Nc3c(C)cccc3Cl)s2)cc(N2CCN(CCO)CC2)n1 [Dasatinib] (partner 0.075 µM)
In short: as §1

[2] = compound: NCC(=O)Nc1ccc(-n2nc(C(F)(F)F)cc2-c2ccc3c(ccc4ccccc43)c2)cc1 + COc1cc2c(Oc3ccc(NC(=O)C4(C(=O)Nc5ccc(F)cc5)CC4)cc3F)ccnc2cc1OCCCN1CCOCC1 [Foretinib] (partner 0.25 µM)
In short: as §1

[3] = compound: NCC(=O)Nc1ccc(-n2nc(C(F)(F)F)cc2-c2ccc3c(ccc4ccccc43)c2)cc1 + CS(=O)(=O)N1CCN(Cc2cc3nc(-c4cccc5[nH]ncc45)nc(N4CCOCC4)c3s2)CC1 [Pictilisib] (partner 1 µM)
In short: as §1

| Cell Line | relative viability ([1]; first compound 0.1 µM) | relative viability ([1]; first compound 1 µM) | relative viability ([1]; first compound 3.162 µM) | relative viability (kb NB 142-70 + Dasatinib; first compound 0.1 µM) | relative viability (kb NB 142-70 + Dasatinib; first compound 1 µM) | relative viability (kb NB 142-70 + Dasatinib; first compound 3.162 µM) | relative viability ([2]; first compound 0.06325 µM) | relative viability ([2]; first compound 0.2 µM) | relative viability ([2]; first compound 0.6325 µM) | relative viability ([2]; first compound 2 µM) | relative viability ([2]; first compound 0.02 µM) | relative viability ([3]; first compound 0.02 µM) | relative viability ([3]; first compound 0.06325 µM) | relative viability ([3]; first compound 0.2 µM) | relative viability ([3]; first compound 0.6325 µM) | relative viability ([3]; first compound 2 µM) |
| --- | --- | --- | --- | --- | --- | --- | --- | --- | --- | --- | --- | --- | --- | --- | --- | --- |
| SW 900 | 0.553 | 0.463 | 0.458 | 0.517 | 0.478 | 0.208 | 1 | 0.863 | 0.855 | 1.04 |  |  |  |  |  |  |
| A549 |  |  |  |  |  |  | 0.956 | 0.917 | 1.01 | 0.971 | 0.923 | 0.459 | 0.495 | 0.564 | 0.565 | 0.517 |
| A-427 | 0.505 | 0.555 | 0.507 | 0.8 | 0.612 | 0.607 | 1.2 | 1.1 | 1.11 | 0.959 |  | 0.595 | 0.726 | 0.744 | 0.739 | 0.815 |
| NCI-H1792 | 0.586 | 0.722 | 0.836 | 0.757 | 0.816 | 0.769 |  |  |  |  |  | 0.244 | 0.319 | 0.277 | 0.315 | 0.344 |
| LCLC-97TM1 | 0.229 | 0.216 | 0.193 | 0.787 | 0.95 | 0.882 | 0.999 | 0.924 | 0.945 | 0.96 | 0.87 | 0.29 | 0.215 |  | 0.178 | 0.187 |
| NCI-H1703 |  |  |  |  |  |  | 0.289 | 0.412 | 0.323 | 0.34 | 0.32 | 0.218 | 0.244 | 0.278 | 0.255 | 0.262 |
| LCLC-103H | 0.47 | 0.475 | 0.504 | 0.459 | 0.521 | 0.505 | 0.71 | 0.938 | 0.754 | 0.736 | 0.703 | 0.606 | 0.61 | 0.571 | 0.648 | 0.673 |
| PC-3 [JPC-3] | 0.516 | 0.54 | 0.534 | 0.94 | 1.05 | 1.02 | 1.1 | 1.12 | 1.08 | 1.16 | 1.08 | 0.645 | 0.855 | 0.739 | 0.745 | 0.88 |
| BEN | 0.443 | 0.459 | 0.488 | 0.307 | 0.303 | 0.209 | 0.602 | 0.561 | 0.681 | 0.657 | 0.635 | 0.54 | 0.581 | 0.55 | 0.547 | 0.576 |
| NCI-H1666 | 0.581 | 0.591 | 0.693 | 0.849 | 0.808 | 0.732 | 1.01 | 0.998 | 0.963 | 0.932 | 0.975 | 0.554 | 0.424 | 0.437 | 0.505 | 0.404 |
| LC-2-ad | 0.457 | 0.475 | 0.513 | 0.609 | 0.607 | 0.463 | 0.998 | 0.891 | 0.954 | 0.984 | 0.93 | 0.428 | 0.503 | 0.377 | 0.453 | 0.403 |
| SK-LU-1 | 0.404 | 0.412 | 0.359 | 0.176 | 0.163 | 0.119 | 0.843 | 0.97 | 0.785 | 0.85 | 0.845 | 0.651 | 0.604 | 0.581 | 0.479 | 0.623 |
| ChaGo-K-1 | 0.872 | 0.803 | 0.838 | 0.509 | 0.559 | 0.543 | 0.956 | 0.847 | 0.937 | 0.77 | 0.866 | 0.617 | 0.784 | 0.394 | 0.676 | 1.04 |
| COR-L 105 | 0.432 | 0.369 | 0.433 | 0.363 | 0.33 | 0.345 | 1.26 | 1.14 | 0.985 | 1.04 | 1.15 | 0.426 | 0.357 | 0.423 | 0.363 | 0.391 |
| NCI-H1975 | 0.599 | 0.662 | 0.435 | 0.395 | 0.421 | 0.364 | 0.94 | 1.08 | 1 | 0.984 | 1.03 | 0.273 | 0.307 | 0.292 | 0.335 | 0.307 |
| Calu-6 |  |  |  |  |  |  | 0.87 | 0.857 | 0.896 | 0.891 | 0.843 | 0.849 | 0.891 | 0.975 | 0.949 | 0.93 |
| NCI-H1993 | 0.688 | 0.583 | 0.638 | 0.626 | 0.478 | 0.531 | 0.819 | 0.814 | 0.796 | 0.835 | 0.861 | 0.759 | 0.773 | 0.738 | 0.838 | 0.861 |
| RERF-LC-KJ | 1.1 | 1.18 | 0.983 | 0.834 | 0.872 | 0.752 | 1.06 | 0.927 | 0.466 | 0.851 | 0.963 | 0.568 | 0.62 | 0.663 | 0.66 | 0.517 |
| NCI-H1648 | 0.276 | 0.275 | 0.206 |  |  |  |  |  |  |  |  |  |  |  |  |  |
| EBC-1 |  |  |  |  |  |  | 0.0845 | 0.105 | 0.0991 | 0.0847 | 0.0952 | 0.324 | 0.37 | 0.434 | 0.36 | 0.404 |
| NCI-H596 |  |  |  | 0.551 | 0.571 | 0.442 | 0.796 | 0.724 | 0.9 | 0.885 | 0.956 | 0.412 | 0.458 | 0.425 | 0.404 | 0.407 |
| NCI-H1299 |  |  |  |  |  |  | 1.12 | 1.14 | 1.04 | 1.15 | 1.16 | 0.346 | 0.8 | 0.804 | 0.781 | 0.732 |
| NCI-H2342 | 0.547 | 0.497 | 0.589 | 0.349 | 0.311 | 0.255 | 1.16 | 1.18 | 0.97 | 1.24 | 1.05 |  |  |  |  |  |
| IA-LM |  |  |  |  |  |  | 1.05 | 1.14 | 1.01 | 1.19 | 1.26 | 0.444 | 0.356 | 0.302 | 0.477 | 0.288 |

— the supplement of paper PMC10307832
